Measurements taken from US5580775A, “High affinity, brain-specific nucleic acids encoding a L-proline transporter, and vectors, and host cells comprising the same” (Emory University, priority 1992, dated 1996).
Like-named read-outs stand apart in the source and are kept apart here. Peptide text beside a SMILES is read from it.

Columns and labels:
[1] = target: T1, rat brain L-proline transporter (Rattus norvegicus, UniProt P28573); test: cell-based
T1 sequence (P28573 1-637): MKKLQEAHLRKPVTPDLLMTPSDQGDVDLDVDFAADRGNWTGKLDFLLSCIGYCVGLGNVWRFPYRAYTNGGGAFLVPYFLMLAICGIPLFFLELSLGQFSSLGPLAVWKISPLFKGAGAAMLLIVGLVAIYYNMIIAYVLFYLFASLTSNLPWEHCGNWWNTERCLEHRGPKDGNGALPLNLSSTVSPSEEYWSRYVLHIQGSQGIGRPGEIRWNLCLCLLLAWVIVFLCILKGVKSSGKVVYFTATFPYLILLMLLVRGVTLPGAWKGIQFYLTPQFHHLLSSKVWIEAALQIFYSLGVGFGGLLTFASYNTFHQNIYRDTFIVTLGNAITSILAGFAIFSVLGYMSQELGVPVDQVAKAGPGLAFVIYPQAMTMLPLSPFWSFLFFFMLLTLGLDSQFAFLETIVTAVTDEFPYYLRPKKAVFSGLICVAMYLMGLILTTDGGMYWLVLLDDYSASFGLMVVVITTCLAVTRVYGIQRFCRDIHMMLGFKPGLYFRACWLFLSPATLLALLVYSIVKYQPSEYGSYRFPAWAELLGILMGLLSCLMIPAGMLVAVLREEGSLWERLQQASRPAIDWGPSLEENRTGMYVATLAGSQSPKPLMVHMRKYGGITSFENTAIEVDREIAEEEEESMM

[2] = target: T1, rat brain L-proline transporter; test: Transport of L-[3H]glutamate or D-[3H]aspartate in HeLa fibroblasts expressing the transporter cDNA; assay type: cell-based; details: transient expression in HeLa fibroblasts
[3] = target: T2, high affinity, Na^+ -dependent rat brain L-proline transporter (Rattus norvegicus, UniProt P28573); test: L-proline uptake (saturation kinetics, Na+ dependence) in HeLa cells transfected with pPROT
T2 sequence (P28573 1-637): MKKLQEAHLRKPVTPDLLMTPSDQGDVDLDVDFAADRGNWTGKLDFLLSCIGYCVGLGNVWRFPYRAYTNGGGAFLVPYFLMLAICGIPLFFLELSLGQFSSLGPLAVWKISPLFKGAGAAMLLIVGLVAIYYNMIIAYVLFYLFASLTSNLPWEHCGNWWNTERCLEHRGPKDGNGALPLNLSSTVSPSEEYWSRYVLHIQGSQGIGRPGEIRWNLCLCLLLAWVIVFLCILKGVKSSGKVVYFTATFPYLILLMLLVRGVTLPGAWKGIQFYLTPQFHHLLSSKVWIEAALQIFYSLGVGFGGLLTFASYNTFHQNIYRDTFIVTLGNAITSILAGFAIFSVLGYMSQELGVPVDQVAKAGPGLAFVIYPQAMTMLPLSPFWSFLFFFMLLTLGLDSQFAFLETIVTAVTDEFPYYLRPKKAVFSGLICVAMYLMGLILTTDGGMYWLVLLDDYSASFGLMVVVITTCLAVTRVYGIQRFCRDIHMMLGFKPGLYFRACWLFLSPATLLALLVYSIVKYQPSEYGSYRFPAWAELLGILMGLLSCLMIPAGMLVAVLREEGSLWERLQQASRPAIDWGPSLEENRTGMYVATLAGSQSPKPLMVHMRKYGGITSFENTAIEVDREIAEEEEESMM

rat brain synaptosomes = details: cited from earlier work
[4] = substrate: O=C(O)[C@@H]1CCCN1; test: cells, lysate or membranes; details: other: 20 min incubation, 50 nM L-[3H]proline plus unlabeled L-proline, HeLa cells transfected with pPROT
[5] = read-out: Ki values in excess of 100 μM (inhibition of proline uptake)
[6] = read-out: Ki (inhibition of proline uptake)
[7] = Ki (inhibition of proline uptake)

Molecule | Ki [1, 5] | other results
O=C(O)CNC(=O)[C@@H]1CCCN1 [Prolylglycine] (H-Pro-Gly-OH) | > 100 µM | –
N[C@@H](CCC(=O)O)C(=O)O [L-Glutamic acid] | > 100 µM | transport induced by the transporter cDNA (in words) [2]: did not induce transport; inhibition of L-proline uptake (in words) [1]: inability
O=C(O)[C@H]1CCCN1 [D-Proline] | > 100 µM | Ki ([1]; Ki (inhibition of L-[3H]proline transport)): > 100 µM
C[C@@H](O)[C@H](N)C(=O)O [L-Threonine] | > 100 µM | –
NC(=O)CC[C@H](N)C(=O)O [L-Glutamine] | > 100 µM | –
CNCC(=O)O [Sarcosine] | – | Ki [1, 6]: 30 µM
CC(C)C[C@H](N)C(=O)O [L-Leucine] | > 100 µM | –
N[C@@H](Cn1oc(=O)[nH]c1=O)C(=O)O [Quisqualic acid] | > 100 µM | –
O=C(O)[C@@H]1CCN1 [L-Azetidine-2-carboxylic acid] | > 100 µM | Ki [1, 6]: 115 µM
N[C@@H](CS)C(=O)O [L-Cysteine] | – | Ki [1, 7]: 91 µM
O=C(O)[C@H]1CCCN[C@H]1C(=O)O (racemic) [(+/-)cis-2,3-piperidine dicarboxylic acid] | > 100 µM | –
N=C(N)NCCC[C@H](N)C(=O)O [L-Arginine] | > 100 µM | –
O=C(O)[C@H]1CN[C@H](C(=O)O)C1 [L-Trans-2,4-PDC, trans-L-pyrrolidone-2,4-dicarboxylate] | > 100 µM | inhibition of L-proline uptake (in words) [1]: none of the excitatory amino acid analogs examined, including the specific L-glutamate uptake blocker, trans-L-pyrrolidone-2, 4-dicarboxylate (L-trans-2,4-PDC) (Bridges et al., 1991), significantly inhibited L-proline uptake
NC(=O)C[C@H](N)C(=O)O [L-Asparagine] | > 100 µM | –
N[C@@H](Cc1c[nH]cn1)C(=O)O [L-Histidine] | – | Ki [1, 7]: 83 µM
NCCCC[C@H](N)C(=O)O [L-Lysine] | > 100 µM | –
NC1CCN(O)C1=O (stereo not drawn) [HA-966, 3-Amino-1-hydroxy-2-pyrrolidone] | > 100 µM | –
NCCCC(=O)O [GABA, gammaaminobutyric acid] | > 100 µM | –
N[C@@H](CSSC[C@H](N)C(=O)O)C(=O)O [L-Cystine] | > 100 µM | –
CC[C@H](C)[C@H](N)C(=O)O [L-Isoleucine] | > 100 µM | –
NC1(C(=O)O)CC1 [1-Amino-1-cyclopropane carboxylic acid] | > 100 µM | –
NCC(=O)N1CCC[C@H]1C(=O)O [Glycylproline] (H-Gly-Pro-OH) | > 100 µM | –
N[C@]1(C(=O)O)CC[C@H](C(=O)O)C1 (relative stereo) [Trans-ACPD, trans1-aminocyclopentane-1,3-dicarboxylic acid] | > 100 µM | –
CN[C@H](CC(=O)O)C(=O)O [N-methyl-D-aspartate] | > 100 µM | –

Molecule | Ki [1, 5] | other results
CCCC[C@@H](N)C(=O)O [D-Norleucine] | > 100 µM | –
NCC(=O)O [Glycine] | > 100 µM | –
C=C(C)[C@H]1CN[C@H](C(=O)O)[C@H]1CC(=O)O [Kainic acid] | > 100 µM | –
O=C(O)C1C=CCN1 (stereo not drawn) [3,4-Dehydroproline] | – | Ki [1, 7]: 31 µM
CC(C)[C@H](N)C(=O)O [L-Valine] | > 100 µM | –
O=C(O)[C@@H]1C[C@@H](O)CN1 [Hydroxyproline] | > 100 µM | –
N[C@H](CC(=O)O)C(=O)O [D-Aspartic acid] | > 100 µM | transport induced by the transporter cDNA (in words) [2]: did not induce transport
N[C@@H](Cc1ccccc1)C(=O)O [L-Phenylalanine] | – | Ki [1, 7]: 48 µM
CSCC[C@H](N)C(=O)O [L-Methionine] | > 100 µM | –
N[C@@H](Cc1c[nH]c2ccccc12)C(=O)O [L-Tryptophan] | > 100 µM | –
N[C@@H](CO)C(=O)O [L-Serine] | > 100 µM | –
O=C(O)[C@@H]1CCCCN1 [L-Pipecolic acid] | – | Ki [1, 7]: 14 µM
CC(=O)N1CCC[C@H]1C(=O)O [N-acetylproline] | > 100 µM | –
O=C1CC[C@@H](C(=O)O)N1 [L-Pyroglutamic acid] | > 100 µM | –
C[C@H](N)C(=O)O [L-Alanine] | > 100 µM | –
N[C@@H](Cc1ccc(O)cc1)C(=O)O [L-Tyrosine] | – | Ki ([1]; Ki values in excess of 100 μM (inhibition of proline uptake)): > 100 µM
CCCC[C@H](N)C(=O)O [L-Norleucine] | – | Ki [1, 7]: 37 µM
NC(=O)[C@@H]1CCCN1 [L-Prolinamide] | > 100 µM | –
O=C(O)c1ccc[nH]1 [Pyrrole-2-carboxylic acid] | > 100 µM | –
COC(=O)[C@@H]1CCCN1 [L-Proline methyl ester] | > 100 µM | –
N[C@H](C(=O)O)c1cc(=O)[nH]o1 [Ibotenic acid] | > 100 µM | –
N[C@@H](CC(=O)O)C(=O)O [L-Aspartic acid] | > 100 µM | inhibition of L-proline uptake (in words) [1]: inability
O=C(O)[C@@H]1CCCN1 [L-proline] | – | specific L-proline uptake upon isotonic substitution of NaCl with choline chloride ([3]; Na+ dependence, choline chloride): abolished; Km ([3]; read-out: apparent Michaelis constant (Km), 20 min incubation, 50 nM L-[3H]proline plus unlabeled L-proline, HeLa cells transfected with pPROT): ~9.7 µM; Km (rat brain synaptosomes; read-out: Km, high affinity component, high affinity): 6 to 12 µM; Km (rat brain synaptosomes; read-out: Km, low affinity component, low affinity): > 190 µM; endogenous L-proline transport as percent of pPROT-induced transport (HeLa cells): less than 10%; Km (HeLa cells; read-out: Km of endogenous L-proline transport, plasmid vector-transfected HeLa cells): > 200 µM
high affinity, Na^+ -dependent rat brain L-proline transporter (Rattus norvegicus) (protein) MKKLQEAHLRKPVTPDLLMTPSDQGDVDLDVDFAADRGNWTGKLDFLLSCIGYCVGLGNVWRFPYRAYTNGGGAFLVPYFLMLAICGIPLFFLELSLGQFSSLGPLAVWKISPLFKGAGAAMLLIVGLVAIYYNMIIAYVLFYLFASLTSNLPWEHCGNWWNTERCLEHRGPKDGNGALPLNLSSTVSPSEEYWSRYVLHIQGSQGIGRPGEIRWNLCLCLLLAWVIVFLCILKGVKSSGKVVYFTATFPYLILLMLLVRGVTLPGAWKGIQFYLTPQFHHLLSSKVWIEAALQIFYSLGVGFGGLLTFASYNTFHQNIYRDTFIVTLGNAITSILAGFAIFSVLGYMSQELGVPVDQVAKAGPGLAFVIYPQAMTMLPLSPFWSFLFFFMLLTLGLDSQFAFLETIVTAVTDEFPYYLRPKKAVFSGLICVAMYLMGLILTTDGGMYWLVLLDDYSASFGLMVVVITTCLAVTRVYGIQRFCRDIHMMLGFKPGLYFRACWLFLSPATLLALLVYSIVKYQPSEYGSYRFPAWAELLGILMGLLSCLMIPAGMLVAVLREEGSLWERLQQASRPAIDWGPSLEENRTGMYVATLAGSQSPKPLMVHMRKYGGITSFENTAIEVDREIAEEEEESMM | – | Km [4]: 9.7 µM
